# Test results published in patent US20230114728A1 (Venatorx Pharmaceuticals, Inc., priority 2019, published 2023).
# How the values were obtained:
# Assay in all cases: Broth microdilution MIC in iron-depleted CAMHB (IDM)
# Format in all cases: cell-based
# [1] = test system: P. aeruginosa CDC-0054 producing VIM-4, OXA-50, and PAO; details: Pseudomonas aeruginosa, read-out: Minimum Inhibitory Concentration, P. aeruginosa CDC-0054
# Procedure: (§1) Example IV: In Vitro Antibacterial Assays in Iron-Depleted Cation-Adjusted Mueller-Hinton Broth
# (§2) To determine the ability of test compounds to inhibit the growth bacterial strains under conditions of iron-depletion, classic cell based broth microdilution minimum inhibitory concentration (MIC) assays were employed. MIC assays are performed according to CLSI methods except where otherwise noted (CLSI, 2018 and CLSI, 2019). The reference type strain E. coli ATCC 25922 was used to determine the ability of the PBP inhibitors to inhibit the growth of Enterobacteriaceae. Wild-type P. aeruginosa ATCC 27853, A. baumannii ATCC 17978 and A. baumannii ATCC 19606, along with the hyper-permeable P. aeruginosa ATCC 35151, an engineered efflux pump-compromised strain of P. aeruginosa (ΔmexAB-oprM), and an engineered efflux-pump compromised strain of A. baumannii IL123 (ABΔ3-ARAEcPore) were used to determine the ability of PBP inhibitors to penetrate the outer membrane of P. aeruginosa and A. baumannii and assess antibacterial activity against these important gram-negative organisms.
# (§3) Briefly, cryo-preserved bacterial cultures of challenge strains are streaked for isolation on appropriate agar medium, in this case cation-adjusted Mueller Hinton agar. Following incubation to allow growth of the colonies, plates are sealed with parafilm and stored refrigerated for up to two weeks. For preparation of assay inoculum and to ensure low variability, at least 5 colonies are picked from the agar plates with an inoculating loop and aseptically transferred to a culture tube containing 3 mL of iron-depleted cation-adjusted Mueller Hinton broth (IDM)—see below for IDM preparation. The broth culture is grown for 3-5 hours at 37° C. with shaking at 200 rpm. Meanwhile, 2-fold serial dilutions of test compounds are conducted in a 96-well plate with a final volume of 75 μL per well at 2-fold the final desired concentration. After the dilution plates are set up the growing cultures are then diluted in a cuvette containing IDM and the optical density is measured at 600 nm. The inoculum is diluted such that 75 μL of this culture in IDM results in a starting bacterial concentration of 2-8×10^5 CFU/mL when added to the dilution plates. The plates are incubated for 16-20 hours for Enterobacteriaceae and Pseudomonas and 20-24 hours for Acinetobacter at 37° C. The MIC values are read visually as the lowest concentration well with no bacterial growth.
# (§4) Method for Iron-Depleted Cation-Adjusted Mueller Hinton Broth (IDM) Preparation:
# (§5) • Prepare cation-adjusted Mueller Hinton broth as per the manufacturer's recommendations and autoclave. • Add 100 g/L Chelex 100 resin, cover with foil and incubate with stirring for 2 hours • Remove Chelex 100 resin by filtration with 0.45 μm filter flask • Add the following back to the medium: • CaCl2 dihydrate: 82.5 mg/L • MgCl2 hexahydrate: 94.1 mg/L • ZnSO4: 10 μM • Adjust pH of medium to 7.3 with 5 N HCl • Sterilize using a 0.22 µm filter flask
# [2] = test system: A. baumannii CDC-0036 OXA-65, and OXA-24; details: Acinetobacter baumannii, read-out: Minimum Inhibitory Concentration, CDC-0036
# Procedure: as §1, §2, §3, §4, §5
# [3] = test system: A. baumannii ATCC 19606; details: Acinetobacter baumannii, ATCC19606, read-out: Minimum Inhibitory Concentration, ATCC 19606
# Procedure: as §1, §2, §3, §4, §5
# [4] = test system: P. aeruginosa (ΔmexAB-oprM); details: Pseudomonas aeruginosa, read-out: Minimum Inhibitory Concentration, P. aeruginosa ΔmexAB-OprM
# Procedure: as §1, §2, §3, §4, §5
# [5] = test system: P. aeruginosa ATCC 35151; details: Pseudomonas aeruginosa, ATCC35151; iron-depleted MHB (IDM); hyper-permeable strain; read-out: Minimum Inhibitory Concentration, P. aeruginosa ATCC 35151
# Procedure: as §1, §2, §3, §4, §5
# [6] = test system: P. aeruginosa CDC-0090 producing KPC-5, OXA-50, and PAO; details: Pseudomonas aeruginosa, read-out: Minimum Inhibitory Concentration, P. aeruginosa CDC-0090
# Procedure: as §1, §2, §3, §4, §5
# [7] = test system: P. aeruginosa CDC-0095 producing OXA-50, and PAO; details: Pseudomonas aeruginosa, read-out: Minimum Inhibitory Concentration, P. aeruginosa CDC-0095
# Procedure: as §1, §2, §3, §4, §5
# [8] = test system: A. baumannii CDC-0033 producing NDM-1, and OXA-94; details: Acinetobacter baumannii, read-out: Minimum Inhibitory Concentration, CDC-0033
# Procedure: as §1, §2, §3, §4, §5
# [9] = test system: A. baumannii CDC-0083 producing NDM-1, PER-7, OXA-23, and OXA-69; details: Acinetobacter baumannii, read-out: Minimum Inhibitory Concentration, CDC-0083
# Procedure: as §1, §2, §3, §4, §5
# [10] = test system: P. aeruginosa ATCC 27853; details: Pseudomonas aeruginosa, ATCC27853, read-out: Minimum Inhibitory Concentration, P. aeruginosa ATCC 27853
# Procedure: as §1, §2, §3, §4, §5
# [11] = test system: A. baumannii ATCC 17978; details: Acinetobacter baumannii, ATCC17978, read-out: Minimum Inhibitory Concentration, ATCC 17978
# Procedure: as §1, §2, §3, §4, §5
# [12] = test system: A. baumannii CDC-0045 producing TEM-1D, OXA-23, and OXA-69; details: Acinetobacter baumannii, read-out: Minimum Inhibitory Concentration, CDC-0045
# [13] = test system: P. aeruginosa CDC-0110; details: Pseudomonas aeruginosa, CDC0110, read-out: Minimum Inhibitory Concentration, P. aeruginosa CDC-0110
# Procedure: as §2, §3, §4, §5
SMILES,MIC [1],MIC [2],MIC [3],MIC [4],MIC [5],MIC [6],MIC [7],MIC [8],MIC [9],MIC [10],MIC [11],MIC [12],MIC [13]
"NCCN1CCN(C(=O)N[C@@H](C(=O)N[C@H]2Cc3ccc(F)c(C(=O)O)c3OB2O)c2c(F)cc(O)c(O)c2Cl)C(=O)C1=O (single isomer, unassigned) [Example 26]",0.5 to 1 µg/mL,8 to 16 µg/mL,0.5 to 1 µg/mL,0.25 µg/mL,0.25 µg/mL,0.25 µg/mL,32 to 64 µg/mL,2 to 4 µg/mL,0.25 µg/mL,0.5 to 1 µg/mL,0.25 µg/mL,0.5 to 1 µg/mL,0.5 to 1 µg/mL
"NCCCN1CCN(C(=O)N[C@@H](C(=O)N[C@H]2Cc3ccc(F)c(C(=O)O)c3OB2O)c2c(F)cc(O)c(O)c2Cl)C(=O)C1=O (single isomer, unassigned) [Example 27]",0.25 µg/mL,2 to 4 µg/mL,0.25 µg/mL,0.25 µg/mL,0.25 µg/mL,0.25 µg/mL,8 to 16 µg/mL,0.5 to 1 µg/mL,0.25 µg/mL,0.5 to 1 µg/mL,0.25 µg/mL,0.5 to 1 µg/mL,2 to 4 µg/mL
"O=C(O)c1ccc(C(NC(=O)N2CCN(CCNC(=O)c3ccc(O)c(O)c3Cl)C(=O)C2=O)C(=O)N[C@H]2Cc3ccc(F)c(C(=O)O)c3OB2O)cc1F (stereo partly drawn) [Example 11, (3R)-3-(2-(4-carboxy-3-fluorophenyl)-2-(4-(2-(2-chloro-3,4-dihydroxybenzamido)ethyl)-2,3-dioxopiperazine-1-carboxamido)acetamido)-7-fluoro-2-hydroxy-3,4-dihydro-2H-benzo[e][1,2]oxaborinine-8-carboxylic acid]",,,> 128 µg/mL,0.5 to 1 µg/mL,0.25 µg/mL,,,,,2 to 4 µg/mL,,,
"CS(=O)(=O)N1CCN(C(=O)NC(C(=O)N[C@H]2Cc3ccc(F)c(C(=O)O)c3OB2O)c2ccc(O)c(O)c2Cl)C1=O (stereo partly drawn) [Example 23, (3R)-3-(2-(2-chloro-3,4-dihydroxyphenyl)-2-(3-(methylsulfonyl)-2-oxoimidazolidine-1-carboxamido)acetamido)-7-fluoro-2-hydroxy-3,4-dihydro-2H-benzo[e][1,2]oxaborinine-8-carboxylic acid]",0.5 to 1 µg/mL,8 to 16 µg/mL,0.25 µg/mL,0.25 µg/mL,0.25 µg/mL,0.5 to 1 µg/mL,8 to 16 µg/mL,8 to 16 µg/mL,0.5 to 1 µg/mL,0.5 to 1 µg/mL,0.25 µg/mL,0.5 to 1 µg/mL,2 to 4 µg/mL
"NC(C(=O)N[C@H]1Cc2ccc(F)c(C(=O)O)c2OB1O)c1c(F)cc(O)c(O)c1Cl (stereo partly drawn) [Example 25, (3R)-3-(2-amino-2-(2-chloro-6-fluoro-3,4-dihydroxyphenyl)acetamido)-7-fluoro-2-hydroxy-3,4-dihydro-2H-benzo[e][1,2]oxaborinine-8-carboxylic acid]",32 to 64 µg/mL,32 to 64 µg/mL,32 to 64 µg/mL,32 to 64 µg/mL,8 to 16 µg/mL,32 to 64 µg/mL,32 to 64 µg/mL,32 to 64 µg/mL,32 to 64 µg/mL,32 to 64 µg/mL,32 to 64 µg/mL,32 to 64 µg/mL,32 to 64 µg/mL
"O=C(O)c1ccc(C(NC(=O)c2c(F)cc(O)c(O)c2Cl)C(=O)N[C@H]2Cc3ccc(F)c(C(=O)O)c3OB2O)cc1F (stereo partly drawn) [Example 71, (3R)-3-(2-(4-carboxy-3-fluorophenyl)-2-(2-chloro-6-fluoro-3,4-dihydroxybenzamido)acetamido)-7-fluoro-2-hydroxy-3,4-dihydro-2H-benzo[e][1,2]oxaborinine-8-carboxylic acid]",0.5 to 1 µg/mL,32 to 64 µg/mL,32 to 64 µg/mL,0.25 µg/mL,0.25 µg/mL,2 to 4 µg/mL,0.5 to 1 µg/mL,32 to 64 µg/mL,32 to 64 µg/mL,0.5 to 1 µg/mL,32 to 64 µg/mL,32 to 64 µg/mL,0.25 µg/mL
"CCN1CCN(C(=O)NC(C(=O)N[C@H]2Cc3cccc(C(=O)O)c3OB2O)c2cccc(NC(=O)c3ccc(O)c(O)c3Cl)c2)C(=O)C1=O (stereo partly drawn) [Example 73, (3R)-3-(2-(3-(2-chloro-3,4-dihydroxybenzamido)phenyl)-2-(4-ethyl-2,3-dioxopiperazine-1-carboxamido)acetamido)-2-hydroxy-3,4-dihydro-2H-benzo[e][1,2]oxaborinine-8-carboxylic acid]",2 to 4 µg/mL,32 to 64 µg/mL,2 to 4 µg/mL,0.25 µg/mL,0.25 µg/mL,2 to 4 µg/mL,2 to 4 µg/mL,32 to 64 µg/mL,32 to 64 µg/mL,8 to 16 µg/mL,2 to 4 µg/mL,32 to 64 µg/mL,0.5 to 1 µg/mL
"CCN1CCN(C(=O)NC(C(=O)N[C@H]2Cc3cccc(C(=O)O)c3OB2O)c2ccc(O)c(NC(=O)c3ccc(O)c(O)c3Cl)c2)C(=O)C1=O (stereo partly drawn) [Example 74, (3R)-3-(2-(3-(2-chloro-3,4-dihydroxybenzamido)-4-hydroxyphenyl)-2-(4-ethyl-2,3-dioxopiperazine-1-carboxamido)acetamido)-2-hydroxy-3,4-dihydro-2H-benzo[e][1,2]oxaborinine-8-carboxylic acid]",0.5 to 1 µg/mL,32 to 64 µg/mL,32 to 64 µg/mL,0.5 to 1 µg/mL,0.25 µg/mL,32 to 64 µg/mL,0.5 to 1 µg/mL,32 to 64 µg/mL,32 to 64 µg/mL,8 to 16 µg/mL,32 to 64 µg/mL,32 to 64 µg/mL,2 to 4 µg/mL
"CC(C)(C)[C@@H](NC(=O)N1CCN(CCNC(=O)c2c(F)cc(O)c(O)c2Cl)C(=O)C1=O)C(=O)N[C@H]1Cc2ccc(F)c(C(=O)O)c2OB1O [Example 80, (R)-3-((R)-2-(4-(2-(2-chloro-6-fluoro-3,4-dihydroxybenzamido)ethyl)-2,3-dioxopiperazine-1-carboxamido)-3,3-dimethylbutanamido)-7-fluoro-2-hydroxy-3,4-dihydro-2H-benzo[e][1,2]oxaborinine-8-carboxylic acid]",2 to 4 µg/mL,8 to 16 µg/mL,2 to 4 µg/mL,0.25 µg/mL,0.25 µg/mL,2 to 4 µg/mL,2 to 4 µg/mL,8 to 16 µg/mL,32 to 64 µg/mL,2 to 4 µg/mL,0.5 to 1 µg/mL,8 to 16 µg/mL,0.5 to 1 µg/mL
